According to patent US20070072897A1, “Phenylaminopropanol derivatives and methods of their use” (Wyeth, priority 2005, published 2007):
pEC50: −log10 of the molar value. Structures can show the parent of a compound that is named as a salt.

Each compound was assayed against T1, human hNET (Homo sapiens, UniProt P23975) (assay: Norepinephrine (NE) uptake assay in MDCK-Net6 cells). Conditions: [3H]NE uptake, MDCK-Net6 cells stably transfected with hNET.
T1 construct: expressed in transfected cells; host or cells: MDCK (MDCK-Net6)
T1 sequence (P23975 whole entry): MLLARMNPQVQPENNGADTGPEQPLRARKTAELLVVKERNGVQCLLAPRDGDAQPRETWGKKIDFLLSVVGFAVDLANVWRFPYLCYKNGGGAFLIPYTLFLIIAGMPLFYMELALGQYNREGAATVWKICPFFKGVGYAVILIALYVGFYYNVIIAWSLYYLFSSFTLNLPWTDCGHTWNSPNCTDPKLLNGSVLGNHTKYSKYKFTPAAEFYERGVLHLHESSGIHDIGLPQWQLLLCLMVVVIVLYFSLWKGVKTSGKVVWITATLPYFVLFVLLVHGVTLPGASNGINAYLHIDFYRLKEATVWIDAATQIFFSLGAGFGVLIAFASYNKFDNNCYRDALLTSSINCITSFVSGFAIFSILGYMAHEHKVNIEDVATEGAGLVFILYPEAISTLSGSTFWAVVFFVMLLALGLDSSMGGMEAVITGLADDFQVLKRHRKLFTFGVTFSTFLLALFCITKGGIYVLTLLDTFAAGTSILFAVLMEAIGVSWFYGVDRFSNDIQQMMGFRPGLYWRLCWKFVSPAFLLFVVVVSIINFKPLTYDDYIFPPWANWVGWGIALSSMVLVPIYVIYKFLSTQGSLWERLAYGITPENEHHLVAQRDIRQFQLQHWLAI
Format: cell-based
Protocol: Cells were plated at 300,000/T75 flask and cells were split twice weekly. […] Cells were plated at 250,000 cells/T75 flask and split twice weekly.
Norepinephrine (NE) Uptake Assay
On day 1, cells were plated at 3,000 cells/well in growth medium and maintained in a cell incubator (37° C., 5% CO2). On day 2, growth medium was replaced with 200 μl of assay buffer (25 mM HEPES; 120 mM NaCl; 5 mM KCl; 2.5 mM CaCl2; 1.2 mM MgSO4; 2 mg/ml glucose (pH 7.4, 37° C.)) containing 0.2 mg/ml ascorbic acid and 10 μM pargyline. Plates containing cells with 200 μl of assay buffer were equilibrated for 10 minutes at 37° C. prior to addition of compounds. A stock solution of desipramine was prepared in DMSO (10 mM) and delivered to triplicate wells containing cells for a final test concentration of 1 μM. Data from these wells were used to define non-specific NE uptake (minimum NE uptake). Test compounds were prepared in DMSO (10 mM) and diluted in assay buffer according to test range (1 to 10,000 nM). Twenty-five microliters of assay buffer (maximum NE uptake) or test compound were added directly to triplicate wells containing cells in 200 μl of assay buffer. The cells in assay buffer with test compounds were incubated for 20 minutes at 37° C. […] The reaction was terminated by decanting the supernatant from the plate. The plates containing cells were washed twice with 200 μl assay buffer (37° C.) to remove free radioligand. The plates were then inverted, left to dry for 2 minutes, then reinverted and air-dried for an additional 10 minutes. […] After cell lysis, 75 μl of scintillation cocktail was added to each well and the plates were sealed with film tape. The plates were returned to the shake table and vigorously shaken for a minimum of 10 minutes to ensure adequate partitioning of organic and aqueous solutions. The plates were counted in a Wallac Microbeta counter (PerkinElmer) to collect the raw cpm data.
For each experiment, a data stream of cpm values collected from the Wallac Microbeta counter was downloaded to a Microsoft Excel statistical application program. Calculations of EC50 values were made using the transformed-both-sides logistic dose response program written by Wyeth Biometrics Department.
In the case of `CNC[C@@H](O)[C@H](c1cccc(F)c1)n1c(=O)n(-c2cccc(F)c2)c2cccc(F)c21` [Example 121, 4-fluoro-1-(3-fluorophenyl)-3-[(1S,2R)-1-(3-fluorophenyl)-2-hydroxy-3-(methylamino)propyl]-1,3-dihydro-2H-benzimidazol-2-one hydrochloride], the pEC50 was 6.72.
In the case of `CNC[C@@H](O)[C@H](c1cccc(F)c1)N1C(=O)C2(CCCC2)c2cccc(F)c21` [Example 117, 7′-fluoro-1′-[(1S,2R)-1-(3-fluorophenyl)-2-hydroxy-3-(methylamino)propyl]spiro[cyclopentane-1,3′-indol]-2′(1′H)-one hydrochloride], the pEC50 was 8.70.
Compound `CNC[C@@H](O)[C@H](c1cccc(F)c1)n1cc(-c2ccccc2OC(C)C)c2ccccc21` [Example 35, (1S,2R)-1-(3-fluorophenyl)-3-(methylamino)-1-{3-[2-(isopropoxy)phenyl]-1H-indol-1-yl}propan-2-ol hydrochloride] has a pEC50 of 6.77.
With `CNC[C@@H](O)[C@H](c1cccc(F)c1)n1cc(-c2ccc(F)cc2F)c2ccccc21` [Example 38, (1S,2R)-1-[3-(2,4-difluorophenyl)-1H-indol-1-yl]-1-(3-fluorophenyl)-3-(methylamino)propan-2-ol hydrochloride] the pEC50 was 6.87.
`CNC[C@@H](O)[C@H](c1cccc(F)c1)n1cc(-c2cccc(OC)c2OC)c2ccccc21` [Example 40, (1S,2R)-1-[3-(2,3-dimethoxyphenyl)-1H-indol-1-yl]-1-(3-fluorophenyl)-3-(methylamino)propan-2-ol hydrochloride] was tested, and the pEC50 was 7.39.
With `CNC[C@@H](O)[C@H](c1ccccc1)n1ccc2cc(O)ccc21` [Example 65, 1-[(1S,2R)-2-hydroxy-3-(methylamino)-1-phenylpropyl]-1H-indol-5-ol hydrochloride] the pEC50 was 7.26.
In the case of `CNC[C@@H](O)[C@H](c1cc(F)cc(F)c1)N1C(=O)C(C)(C)c2ccccc21` [Example 64, 1-[(1S,2R)-1-(3,5-difluorophenyl)-2-hydroxy-3-(methylamino)propyl]-3,3-dimethyl-1,3-dihydro-2H-indol-2-one hydrochloride], the pEC50 was 7.70.
Work on `CNC[C@@H](O)[C@H](c1cc(F)cc(Cl)c1)N1CC(C)(C)c2cccc(F)c21` [Example 114, (1S,2R)-1-(3-chloro-5-fluorophenyl)-1-(7-fluoro-3,3-dimethyl-2,3-dihydro-1H-indol-1-yl)-3-(methylamino)propan-2-ol hydrochloride] yielded a pEC50 of 6.78.
`CC1(C)CN([C@@H](c2cc(F)cc(F)c2)[C@H](O)CN)c2ccccc21` [Example 61, (1S,2R)-3-amino-1-(3,5-difluorophenyl)-1-(3,3-dimethyl-2,3-dihydro-1H-indol-1-yl)propan-2-ol hydrochloride] showed a pEC50 of 6.67.
Work on `CC1(C)C(=O)N([C@@H](c2cc(F)cc(F)c2)[C@H](O)CN)c2c(F)cccc21` [Example 122, 1-[(1S,2R)-3-amino-1-(3,5-difluorophenyl)-2-hydroxypropyl]-7-fluoro-3,3-dimethyl-1,3-dihydro-2H-indol-2-one] yielded a pEC50 of 6.68.
Compound `CNC[C@@H](O)[C@H](c1ccccc1)N1C(=O)C(C)(C)c2cc(OCc3ccccc3)ccc21` [Example 68, 5-benzyloxy-1-[(1S,2R)-2-hydroxy-3-(methylamino)-1-phenylpropyl]-3,3-dimethyl-1,3-dihydro-2H-indol-2-one hydrochloride] has a pEC50 of 6.62.

Same assay, conditions: at 1 μM; [3H]NE uptake, MDCK-Net6 cells; read-out: hNET Percentage inhibition at 1 μM
With `CNC[C@@H](O)[C@H](c1cccc(F)c1)N1CCN(Cc2ccccc2)c2ccccc21` [Example 53, (1S,2R)-1-(4-benzyl-3,4-dihydroquinoxalin-1(2H)-yl)-1-(3-fluorophenyl)-3-(methylamino)propan-2-ol hydrochloride] the inhibition at 1 µM was 49%.
Compound `CNC[C@@H](O)[C@H](c1cccc(F)c1)n1ccc2cc(C)ncc21` [Example 48, (1S,2R)-1-(3-fluorophenyl)-3-(methylamino)-1-(5-methyl-1H-pyrrolo[2,3-c]pyridin-1-yl)propan-2-ol hydrochloride] has an inhibition at 1 µM of 51%.
